In US20120001065A1, “EVALUATING RENAL FUNCTION” (Mayo Foundation for Medical Education and Rsearch, priority 2009, published 2012):
Several values for one entry are separate records, joined by “and”; a condition that tells them apart may be missing. Equal entries are not always repeated.

Key:
[1] = GFR and ERPF-Long Renal Clearance (iothalamate and PAH continuous infusion): PAH concentration and ERPF; type: in vivo; parameters: CE ERPF / MS ERPF: unit not given here; conditions: one human subject
Method: ERPF can be calculated according to Formula II.
Blood samples were collected in tubes containing heparin or EDTA. Blood samples were centrifuged at 650 g for 7 minutes to separate plasma. Plasma was collected and stored at 4° C. to 8° C. Urine samples were collected and stored at 4° C. to 8° C. Frozen plasma and urine samples were thawed and stored at 4° C. to 8° C. until analysis.
The urine samples were diluted 1:10 with water and followed by the addition of internal standard, D3-iothalamate. All urine and plasma samples were then subjected to acetonitrile and/or 70% acetone polypeptide precipitation (100 μL) followed by centrifugation for 5 minutes at 650 g to remove/pellet protein. […]

[2] = GFR and ERPF-Long Renal Clearance (iothalamate and PAH continuous infusion): iothalamate concentration and GFR; type: in vivo; parameters: CE GFR / MS GFR: unit not given here; conditions: one human subject; for CE GFR: corrected GFR per collection period from CE-UV; for CE GFR / MS GFR / Urine iothalamate concentration, CE / Urine iothalamate concentration, MS: continuous infusion; for MS GFR: corrected GFR per collection period from LC-MS/MS; for Plasma iothalamate concentration, CE / Plasma iothalamate concentration, MS: timed plasma collections P1-P6, continuous intravenous infusion; for Plasma iothalamate concentration, CE / Urine iothalamate concentration, CE: CE-UV; for Plasma iothalamate concentration, MS / Urine iothalamate concentration, MS: LC-MS/MS; for Urine iothalamate concentration, CE / Urine iothalamate concentration, MS: timed urine collections U1-U5
Method: For example, GFR can be calculated according to Formula I.
where UIoth is the concentration of iothalamate in urine, V is the urine flow rate (volume per unit of time), and PIoth is the plasma concentration during the urine collection period.
For the simultaneous determination of GFR and ERPF, iothalamate (Conray®, Mallinckrodt Inc. St. Louis, Mo.) and PAH (Aminohippurate Sodium, Merck & Co. Inc. Whitehouse Station, N.J.) were administered intravenously to one human subject. Iothalamate and PAH were administered using previously described constant infusion protocol. […] Blood samples were collected in tubes containing heparin or EDTA. Blood samples were centrifuged at 650 g for 7 minutes to separate plasma. Plasma was collected and stored at 4° C. to 8° C. Urine samples were collected and stored at 4° C. to 8° C. Frozen plasma and urine samples were thawed and stored at 4° C. to 8° C. until analysis.
The timed plasma collections (100 μL of each) were processed independently by diluting 1:3 with water followed by the addition of internal standard, D3-iothalamate and D4-PAH (20 μL of 38 μg/mL stock). The urine samples were diluted 1:10 with water and followed by the addition of internal standard, D3-iothalamate. All urine and plasma samples were then subjected to acetonitrile and/or 70% acetone polypeptide precipitation (100 μL) followed by centrifugation for 5 minutes at 650 g to remove/pellet protein. […]

For `Nc1ccc(C(=O)NCC(=O)O)cc1` [PAH, p-aminohippuric acid], the “MS ERPF” value ([1]; ERPF per collection period from LC-MS/MS, continuous infusion) was 586 and 514 and 532 and 602 and 566, the “CE ERPF” value ([1]; ERPF per collection period, CE, continuous infusion) was 574 and 534 and 523 and 615 and 543 and the “Plasma PAH concentration, CE” value ([1]; timed plasma collections P1-P6, CE, continuous intravenous infusion) was 17.755 µg/mL and 17.120 µg/mL and 17.740 µg/mL and 18.320 µg/mL and 18.000 µg/mL and 17.635 µg/mL. The “Plasma PAH concentration, MS” value ([1]; timed plasma collections P1-P6, LC-MS/MS, continuous intravenous infusion) was 18.3 µg/mL and 18 µg/mL and 18.7 µg/mL and 18.9 µg/mL and 19.4 µg/mL and 17.9 µg/mL and the “Urine PAH concentration, CE” value ([1]; timed urine collections U1-U5, CE, continuous infusion) was 97.620 µg/mL.
In the case of `CNC(=O)c1c(I)c(NC(C)=O)c(I)c(C(=O)O)c1I` [Iothalamate, iothalamate], the “CE GFR” value ([2]; collection period P1) was 138, the “CE GFR” value ([2]; collection period P2) was 127 and the “CE GFR” value ([2]; collection period P3) was 123. The “CE GFR” value ([2]; collection period P4) was 114, the “CE GFR” value ([2]; collection period P5) was 119 and the “MS GFR” value ([2]; collection period P1) was 141. For the same molecule, the “MS GFR” value ([2]; collection period P2) was 114, the “MS GFR” value ([2]; collection period P3) was 120 and the “MS GFR” value ([2]; collection period P4) was 116. For the same molecule, the “MS GFR” value ([2]; collection period P5) was 119, the “Plasma iothalamate concentration, CE” value ([2]; plasma collection P1) was 11.645 µg/mL and the “Plasma iothalamate concentration, CE” value ([2]; plasma collection P2) was 9.479 µg/mL. For the same molecule, the “Plasma iothalamate concentration, CE” value ([2]; plasma collection P3) was 8.341 µg/mL, the “Plasma iothalamate concentration, CE” value ([2]; plasma collection P4) was 7.334 µg/mL and the “Plasma iothalamate concentration, CE” value ([2]; plasma collection P5) was 6.869 µg/mL. The “Plasma iothalamate concentration, CE” value ([2]; plasma collection P6) was 6.912 µg/mL, the “Plasma iothalamate concentration, MS” value ([2]; plasma collection P1) was 10.6 µg/mL and the “Plasma iothalamate concentration, MS” value ([2]; plasma collection P2) was 9.09 µg/mL. The “Plasma iothalamate concentration, MS” value ([2]; plasma collection P3) was 7.93 µg/mL, the “Plasma iothalamate concentration, MS” value ([2]; plasma collection P4) was 8.21 µg/mL and the “Plasma iothalamate concentration, MS” value ([2]; plasma collection P5) was 7.12 µg/mL. The “Plasma iothalamate concentration, MS” value ([2]; plasma collection P6) was 6.43 µg/mL, the “Urine iothalamate concentration, CE” value ([2]; urine collection U1) was 12.973 µg/mL and the “Urine iothalamate concentration, CE” value ([2]; urine collection U2) was 9.189 µg/mL. The “Urine iothalamate concentration, CE” value ([2]; urine collection U3) was 8.069 µg/mL, the “Urine iothalamate concentration, CE” value ([2]; urine collection U4) was 7.716 µg/mL and the “Urine iothalamate concentration, CE” value ([2]; urine collection U5) was 7.333 µg/mL. For the same molecule, the “Urine iothalamate concentration, MS” value ([2]; urine collection U1) was 12.4 µg/mL, the “Urine iothalamate concentration, MS” value ([2]; urine collection U2) was 7.85 µg/mL and the “Urine iothalamate concentration, MS” value ([2]; urine collection U3) was 8.09 µg/mL. For the same molecule, the “Urine iothalamate concentration, MS” value ([2]; urine collection U4) was 8.5 µg/mL and the “Urine iothalamate concentration, MS” value ([2]; urine collection U5) was 7.21 µg/mL.
